Experimental data published in patent publication US10377770B2 (Novartis AG, priority 2015, dated 2019).

The molecules below were run against C-Raf FL (full length CRAF with Y340E and Y341E activating mutations, co-expressed with h14-3-3 zeta) (Homo sapiens (Human), UniProt P04049, Y340E/Y341E) (assay: In vitro Raf activity determination, AlphaScreen p-MEK readout, c-Raf (C-Raf FL)). Details: c-Raf approximately 4 nM, ATP 1 μM, pre-incubation 60 minutes, reaction 1 hour.
Type: biochemical
How it was run: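 Phosphorylation of kinase-dead biotinylated MEK1 (~10 nM) by C-Raf FL (~4 nM) read by AlphaScreen luminescence with anti-phospho-MEK1/2 after EDTA stop. ATP was 1 μM, with a 1 h reaction at room temperature. Compounds were pre-incubated with enzyme and substrate for 60 min in Tris/MgCl2 buffer, pH 7.5.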

Sequence of C-Raf FL (full length CRAF with Y340E and Y341E activating mutations, co-expressed with h14-3-3 zeta) (P04049 whole entry Y340E/Y341E): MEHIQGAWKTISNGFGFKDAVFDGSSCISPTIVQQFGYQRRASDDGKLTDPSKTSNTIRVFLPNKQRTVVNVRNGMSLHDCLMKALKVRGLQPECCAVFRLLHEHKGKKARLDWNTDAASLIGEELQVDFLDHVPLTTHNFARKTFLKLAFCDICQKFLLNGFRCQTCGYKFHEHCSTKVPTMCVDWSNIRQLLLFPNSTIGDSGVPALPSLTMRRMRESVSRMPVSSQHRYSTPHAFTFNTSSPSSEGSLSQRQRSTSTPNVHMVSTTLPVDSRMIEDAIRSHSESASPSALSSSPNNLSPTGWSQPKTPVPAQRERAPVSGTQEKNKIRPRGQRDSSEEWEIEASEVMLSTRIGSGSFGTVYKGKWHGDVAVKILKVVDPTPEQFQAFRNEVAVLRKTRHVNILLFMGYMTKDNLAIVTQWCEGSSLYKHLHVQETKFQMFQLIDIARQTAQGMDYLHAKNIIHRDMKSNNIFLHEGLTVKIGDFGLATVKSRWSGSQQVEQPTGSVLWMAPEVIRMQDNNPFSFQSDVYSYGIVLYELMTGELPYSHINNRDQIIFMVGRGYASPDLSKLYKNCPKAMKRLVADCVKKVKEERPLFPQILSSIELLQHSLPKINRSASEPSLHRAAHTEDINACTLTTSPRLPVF
Sequence of C-Raf FL (full length CRAF with Y340E and Y341E activating mutations, co-expressed with h14-3-3 zeta) (P63104 whole entry partner): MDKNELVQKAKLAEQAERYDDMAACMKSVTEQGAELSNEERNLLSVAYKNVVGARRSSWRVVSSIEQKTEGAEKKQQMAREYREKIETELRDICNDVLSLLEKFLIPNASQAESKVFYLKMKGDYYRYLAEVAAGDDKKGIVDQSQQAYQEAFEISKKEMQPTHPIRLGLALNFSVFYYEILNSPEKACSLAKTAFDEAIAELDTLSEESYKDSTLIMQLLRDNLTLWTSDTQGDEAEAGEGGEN

First: Cc1ccc(NC(=O)c2ccnc(C(F)(F)F)c2F)cc1-c1cc2n(c(=O)c1)CC[C@@H]1COCCN21 [Example 415, (R)-3-fluoro-N-(4-methyl-3-(8-oxo-1,2,4,4a,5,6-hexahydro-8H-pyrido[2′,1′:2,3]pyrimido[6,1-c][1,4]oxazin-10-yl)phenyl)-2-(trifluoromethyl)isonicotinamide]
Second: Cc1ccc(NC(=O)c2ccnc(C(F)(F)F)c2F)cc1-c1cc2n(c(=O)c1)CC[C@H]1COCCN21 [Example 416, (S)-3-fluoro-N-(4-methyl-3-(8-oxo-1,2,4,4a,5,6-hexahydro-8H-pyrido[2′,1′:2,3]pyrimido[6,1-c][1,4]oxazin-10-yl)phenyl)-2-(trifluoromethyl)isonicotinamide]
The IC50 of the first is 2-fold higher: 800 pM for the first, 400 pM for the second. The second is the more potent here.

Compared with Cc1ccc(NC(=O)c2ccnc(C(C)(C)F)c2)cc1-c1cc2n(c(=O)c1)CC[C@H]1CCOCCN21 [Example 417, (S)-2-(2-fluoropropan-2-yl)-N-(4-methyl-3-(9-oxo-1,2,5,5a,6,7-hexahydro-4H,9H-pyrido[2′,1′:2,3]pyrimido[1,6-d][1,4]oxazepin-11-yl)phenyl)isonicotinamide], Cc1ccc(NC(=O)c2ccnc(C(C)(C)F)c2)cc1-c1cc(F)c2c(c1)N1CCOC[C@H]1[C@](F)(CO)C2 [Example 422, N-(3-((4aS,5S)-5,7-difluoro-5-(hydroxymethyl)-1,2,4,4a,5,6-hexahydro-[1,4]oxazino[4,3-a]quinolin-9-yl)-4-methylphenyl)-2-(2-fluoropropan-2-yl)isonicotinamide] is 2-fold higher in IC50: 500 pM for the first, 1000 pM for the second.

Going from Cc1ccc(NC(=O)c2ccnc(C(F)(F)F)c2)cc1-c1cc(F)c2c(c1)N1CCOC[C@H]1[C@](F)(CO)C2 [Example 419] to Cc1ccc(NC(=O)c2ccnc(C(F)(F)F)c2)cc1-c1cc(F)c2c(c1)N1CCOC[C@@H]1[C@@](F)(CO)C2 [Example 424, N-(3-((4aR,5R)-5,7-difluoro-5-(hydroxymethyl)-1,2,4,4a,5,6-hexahydro-[1,4]oxazino[4,3-a]quinolin-9-yl)-4-methylphenyl)-2-(trifluoromethyl)isonicotinamide], the IC50 falls from 500 pM to 200 pM (2.5-fold). The second is the more potent here.

Compared with Cc1ccc(NC(=O)c2ccnc(C(C)(F)F)c2)cc1-c1cc(F)c2c(c1)N1CCOC[C@H]1[C@](F)(CO)C2 [Example 420, N-(3-((4aS,5S)-5,7-difluoro-5-(hydroxymethyl)-1,2,4,4a,5,6-hexahydro-[1,4]oxazino[4,3-a]quinolin-9-yl)-4-methylphenyl)-2-(1,1-difluoroethyl)isonicotinamide], Cc1ccc(NC(=O)c2ccnc(C(C)(F)F)c2)cc1-c1cc(F)c2c(c1)N1CCOC[C@@H]1[C@@](F)(CO)C2 [Example 425, N-(3-((4aR,5R)-5,7-difluoro-5-(hydroxymethyl)-1,2,4,4a,5,6-hexahydro-[1,4]oxazino[4,3-a]quinolin-9-yl)-4-methylphenyl)-2-(1,1-difluoroethyl)isonicotinamide] is 1.5-fold lower in IC50: 600 pM for the first, 400 pM for the second.

Going from Cc1ncc(NC(=O)c2cccc(C(F)(F)F)c2)cc1-c1cc(F)c2c(c1)N1CCOC[C@H]1[C@](F)(CO)C2 [Example 421, N-(5-((4aS,5S)-5,7-difluoro-5-(hydroxymethyl)-1,2,4,4a,5,6-hexahydro-[1,4]oxazino[4,3-a]quinolin-9-yl)-6-methylpyridin-3-yl)-3-(trifluoromethyl)benzamide] to Cc1ncc(NC(=O)c2cccc(C(F)(F)F)c2)cc1-c1cc(F)c2c(c1)N1CCOC[C@@H]1[C@@](F)(CO)C2 [Example 426, N-(5-((4aR,5R)-5,7-difluoro-5-(hydroxymethyl)-1,2,4,4a,5,6-hexahydro-[1,4]oxazino[4,3-a]quinolin-9-yl)-6-methylpyridin-3-yl)-3-(trifluoromethyl)benzamide], the IC50 falls from 800 pM to 400 pM (2-fold).

First: Cc1ccc(NC(=O)c2cnnc(C(F)(F)F)c2)cc1-c1cc(F)c2c(c1)N1CCOC[C@H]1[C@](F)(CO)C2 [Example 423, N-(3-((4aS,5S)-5,7-difluoro-5-(hydroxymethyl)-1,2,4,4a,5,6-hexahydro-[1,4]oxazino[4,3-a]quinolin-9-yl)-4-methylphenyl)-6-(trifluoromethyl)pyridazine-4-carboxamide]
Second: Cc1ccc(NC(=O)c2cnnc(C(F)(F)F)c2)cc1-c1cc(F)c2c(c1)N1CCOC[C@@H]1[C@@](F)(CO)C2 [Example 428, N-(3-((4aR,5R)-5,7-difluoro-5-(hydroxymethyl)-1,2,4,4a,5,6-hexahydro-[1,4]oxazino[4,3-a]quinolin-9-yl)-4-methylphenyl)-6-(trifluoromethyl)pyridazine-4-carboxamide]
The IC50 of the first is 7-fold higher: 700 pM for the first, 100 pM for the second. The second is the more potent here.

Cc1ccc(NC(=O)c2ccnc(C(C)(C)F)c2)cc1-c1cc(F)c2c(c1)N1CCOC[C@@H]1[C@@](F)(CO)C2 [Example 427, N-(3-((4aR,5R)-5,7-difluoro-5-(hydroxymethyl)-1,2,4,4a,5,6-hexahydro-[1,4]oxazino[4,3-a]quinolin-9-yl)-4-methylphenyl)-2-(2-fluoropropan-2-yl)isonicotinamide] and Cc1ccc(NC(=O)c2ccnc(C(C)(C)F)c2)cc1-c1cc(F)c2c(c1)N1CCOC[C@H]1[C@@](F)(CO)C2 [Example 432, N-(3-((4aS,5R)-5,7-difluoro-5-(hydroxymethyl)-1,2,4,4a,5,6-hexahydro-[1,4]oxazino[4,3-a]quinolin-9-yl)-4-methylphenyl)-2-(2-fluoropropan-2-yl)isonicotinamide] are within 1.5-fold of each other in IC50: 600 pM for the first, 700 pM for the second.

Cc1ccc(NC(=O)c2ccnc(C(F)(F)F)c2)cc1-c1cc(F)c2c(c1)N1CCOC[C@H]1[C@@](F)(CO)C2 [Example 429, N-(3-((4aS,5R)-5,7-difluoro-5-(hydroxymethyl)-1,2,4,4a,5,6-hexahydro-[1,4]oxazino[4,3-a]quinolin-9-yl)-4-methylphenyl)-2-(trifluoromethyl)isonicotinamide] and Cc1ccc(NC(=O)c2ccnc(C(C)(F)F)c2)cc1-c1cc(F)c2c(c1)N1CCOC[C@H]1[C@@](F)(CO)C2 [Example 430, N-(3-((4aS,5R)-5,7-difluoro-5-(hydroxymethyl)-1,2,4,4a,5,6-hexahydro-[1,4]oxazino[4,3-a]quinolin-9-yl)-4-methylphenyl)-2-(1,1-difluoroethyl)isonicotinamide] are within 1.5-fold of each other in IC50: 800 pM for the first, 600 pM for the second.

First: Cc1ncc(NC(=O)c2cccc(C(F)(F)F)c2)cc1-c1cc(F)c2c(c1)N1CCOC[C@H]1[C@@](F)(CO)C2 [Example 431, N-(5-((4aS,5R)-5,7-difluoro-5-(hydroxymethyl)-1,2,4,4a,5,6-hexahydro-[1,4]oxazino[4,3-a]quinolin-9-yl)-6-methylpyridin-3-yl)-3-(trifluoromethyl)benzamide]
Second: Cc1ncc(NC(=O)c2cccc(C(F)(F)F)c2)cc1-c1cc(F)c2c(c1)N1CCOC[C@@H]1[C@](F)(CO)C2 [Example 437, N-(5-((4aR,5S)-5,7-difluoro-5-(hydroxymethyl)-1,2,4,4a,5,6-hexahydro-[1,4]oxazino[4,3-a]quinolin-9-yl)-6-methylpyridin-3-yl)-3-(trifluoro-methyl)benzamide]
The IC50 of the first is 7.3-fold higher: 4400 pM for the first, 600 pM for the second. The second is the more potent here.

Cc1ccc(NC(=O)c2cnnc(C(F)(F)F)c2)cc1-c1cc(F)c2c(c1)N1CCOC[C@H]1[C@@](F)(CO)C2 [Example 433, N-(3-((4aS,5R)-5,7-difluoro-5-(hydroxymethyl)-1,2,4,4a,5,6-hexahydro-[1,4]oxazino[4,3-a]quinolin-9-yl)-4-methylphenyl)-6-(trifluoromethyl)pyridazine-4-carboxamide] and Cc1ccc(NC(=O)c2cnnc(C(F)(F)F)c2)cc1-c1cc(F)c2c(c1)N1CCOC[C@@H]1[C@](F)(CO)C2 [Example 439, N-(3-((4aR,5S)-5,7-difluoro-5-(hydroxymethyl)-1,2,4,4a,5,6-hexahydro-[1,4]oxazino[4,3-a]quinolin-9-yl)-4-methylphenyl)-6-(trifluoromethyl) pyridazine-4-carboxamide] are the same in IC50: 100 pM for the first, 100 pM for the second.

Compared with Cc1ccc(NC(=O)c2cncc(C(F)(F)F)c2)cc1-c1cc(F)c2c(c1)N1CCOC[C@H]1[C@@](F)(CO)C2 [Example 434, N-(3-((4aS,5R)-5,7-difluoro-5-(hydroxymethyl)-1,2,4,4a,5,6-hexahydro-[1,4]oxazino[4,3-a]quinolin-9-yl)-4-methylphenyl)-5-(trifluoromethyl)nicotinamide], Cc1ccc(NC(=O)c2cncc(C(F)(F)F)c2)cc1-c1cc(F)c2c(c1)N1CCOC[C@@H]1[C@](F)(CO)C2 [Example 440, N-(3-((4aR,5S)-5,7-difluoro-5-(hydroxymethyl)-1,2,4,4a,5,6-hexahydro-[1,4]oxazino[4,3-a]quinolin-9-yl)-4-methylphenyl)-5-(trifluoromethyl) nicotinamide] is 4.3-fold lower in IC50: 1300 pM for the first, 300 pM for the second.

Compared with Cc1ccc(NC(=O)c2ccnc(C(C)(F)F)c2)cc1-c1cc(F)c2c(c1)N1CCOC[C@@H]1[C@](F)(CO)C2 [Example 436, N-(3-((4aR,5S)-5,7-difluoro-5-(hydroxymethyl)-1,2,4,4a,5,6-hexahydro-[1,4]oxazino[4,3-a]quinolin-9-yl)-4-methylphenyl)-2-(1,1-difluoroethyl) isonicotinamide], Cc1ccc(NC(=O)c2ccnc(C(C)(C)F)c2)cc1-c1cc(F)c2c(c1)N1CCOC[C@@H]1[C@](F)(CO)C2 [Example 438, N-(3-((4aR,5S)-5,7-difluoro-5-(hydroxymethyl)-1,2,4,4a,5,6-hexahydro-[1,4]oxazino[4,3-a]quinolin-9-yl)-4-methylphenyl)-2-(2-fluoropropan-2-yl)isonicotinamide] is 2.7-fold higher in IC50: 300 pM for the first, 800 pM for the second. The first is the more potent here.

Work on Cc1ncc(NC(=O)c2ccnc(C(F)(F)F)c2)cc1-c1ccc2c(c1)N1CCOCC[C@H]1C[C@H]2O [Example 442, N-(5-((5aS,7R)-7-hydroxy-1,2,5,5a,6,7-hexahydro-4H-[1,4]oxazepino [4,5-a]quinolin-10-yl)-6-methylpyridin-3-yl)-2-(trifluoromethyl) isonicotinamide] yielded an IC50 of 700 pM.
